Patent US20250381173A1, “Long-Lasting Anaesthetic Formulation” (BERTIE INTERNATIONAL AB, priority 2022, published 2025)
Values joined by “and” are separate entries in the source; they are usually repeats but may differ in a detail not shown here. Identical values can stand only once.

Key:
sciatic nerve = experiment: In vivo test 3: sensitivity test (tweezer), motor and sensor block after s.c. injection close to the sciatic nerve; set-up: species or system Wistar albino rats
Description: Male Wistar albino rats, weighing 200-250 g, obtained from SYLAB Experimental Animals Laboratory, were used in the experiments. The animals were kept in a 12 hour light-12 hour dark light period under standard conditions and fed with standard pellet water (ad libitum). All studies were carried out in accordance with international ethical rules, without abusing animal rights.
Formulations used were the same as in Example 2, with additional storage. The formulations were stored for 7 months at different temperatures. At first, the formulations were stored in the freezer for 6 months. Thereafter there were alterations in temperature storage; the formulations were iteratively stored in room temperature and in the fridge before use.
The compositions were administrated s. c. in one single injection at time 0. The compositions were administrated to a position in close proximity to the sciatic nerve. • Group 1: Ropivacaine 7.5 mg/ml, 1.1-1.2 ml. Total=at least 8.25 mg ropivacaine. This composition is commercial ropivacaine (Ropivacaina Inibsa, injectable solution). • Group 2: Ropivacaine 4 mg/ml, 2 ml, pH 5 (Test 1). Total=8 mg ropivacaine.
The sensitivity test was performed at 9 different time points within 9 hours after administration of the test item (1 h, […], 2 h, 3 h, 4 h, 5 h, 6 h, 7 h, 8 h and 9 h) by touching each rat with a tweezer. The rat's reaction in the form of wrinkling of the skin was evaluated by ocular inspection, giving each monitored response a value of 0 (no response), 0.5 (low response) or 1 (response).

female rats [1] = experiment: Local anesthesia pilot study, prick (sensitivity) test after one s.c. injection; type: in vivo, Sprague Dawley rats; conditions: data not shown
Description: (§1) In order to evaluate administration of local anesthesia in a sensitivity test in female rats a pilot- and an efficacy study was performed.
(§2) Sprauge Dawley rats (females, 10 weeks) were acquired from Janvier Europe. Rats were housed in the animal facility, Medicon Village, Lund, Sweden. The rats were kept at 12 h light/dark cycles in polystyrene cages (type III cages, 2-3 rats per cage) comprising wood shavings. The rats were fed with standard rodent diet and water ad libitum. The rats were acclimatized for approximately one week before initiation of the experiment. The rats were identified by a marking on the tail with a permanent marker day 1.
Formulation of reference anesthesia ropivacaine, was prepared such that the pH of the composition and the concentration and dose of ropivacaine where essentially identical to the compositions of the invention. The concentration of Ropivacaine was 5 mg/ml in the formulation and was administered at a dose of 1 mg/kg bodyweight in 2 animals, 0.25 mg/kg bodyweight in 2 animals; and placebo PBS (phosphate buffered saline) in 2 animals. The vehicle and reference anesthesia were administrated s. c. (subcutaneous) in one single injection at time 0.
The rats were shaved at the back and habituated to the experimental environment for 30 minutes prior to the testing. […] The rat's reaction in the form of wrinkling of the skin was evaluated by ocular inspection.

[2] = Impurity analysis: 2,6-dimethylaniline (Impurity H) by UPLC-UV and UPLC-UV-MS; type: physicochemical
Description: Qualitative LC-analyzes were performed on samples from the stage in the formulation procedure after ropivacaine was added. LC analyzes with ultraviolet light (UV) detection were performed on a Thermo Fischer Scientific Vanquish UPLC instrument employing a Waters BEH C18 1.7 um 2.1*150 mm chromatographic column at 0.3 mL/min flow rate and otherwise method according to European pharmacopoeia 11.1, monograph 01/2017:2335 ‘Ropivacaine Hydrochloride Monohydrate’.
LC analyzes with UV and MS detection were carried out on a Waters Acquity UPLC Quattro Micro MS-instrument with electrospray ionisation (ESI) in positive-negative switching mode. The method used was based on monograph 01/2017:2335 as above, however, the mobile phase was changed to a MS-compatible one; instead of phosphate buffer 0.1% NH3/MeCN with gradient elution was used.
One of the impurities of ropivacaine specified in the pharmacopeial monograph Eu Pharm 11.1, 01/2017:2335 as Impurity H, the carcinogenic 2,6-dimethylaniline, was analyzed in prepared formulations by LC-UV and LC-UV-MS against 2,6-dimethylaniline reference material.
Specified Impurity H of ropivacaine of Ph. Eur. 11.1, 01/2017:2335-2,6-dimethylaniline—was not detected (<0.05 area-%), neither in the ropivacaine reference standard nor in the formulated samples of ropivacaine of microwave heated triethanolamine, as analyzed by UPLC-UV (240 nm) and UPLC-UV-MS (Full scan m/z 50-800). As such, it was concluded that 2,6-dimethylaniline is not produced in the treatment of a formulation of the present disclosure.

female rats [3] = experiment: Local anesthesia efficacy test, prick test after one s.c. injection; type: in vivo, Sprague Dawley rats; conditions: 0.25 mg/kg s.c.
Description: as §1, §2
Formulation of reference anesthesia Ropivacaine, was prepared in the same way as for the pilot study.
The rats were shaved at the back and habituated to the experimental environment for 30 minutes prior to the testing. The sensitivity test was performed at 6 different time points within 6 hours after administration of the test item (30 min, 1 h, 2 h, 3 h, 4 h, 5 h) by touching each rat with a needle. The rat's reaction in the form of wrinkling of the skin was evaluated by ocular inspection, giving each monitored response a value of 0 (no response) or 1 (response).

[4] = individual rat, score 0, 0.5 or 1, 0 h
[5] = individual rat, score 0, 0.5 or 1, 1 h
[6] = individual rat, score 0, 0.5 or 1, 2 h
[7] = individual rat, score 0, 0.5 or 1, 3 h
[8] = individual rat, score 0, 0.5 or 1, 4 h
[9] = individual rat, score 0, 0.5 or 1, 5 h
[10] = individual rat, score 0, 0.5 or 1, 6 h
[11] = individual rat, score 0, 0.5 or 1, 7 h

For `CCCN1CCCC[C@H]1C(=O)Nc1c(C)cccc1C` [Ropivacaine, ropivacaine], the “Loss Motor block, average” value (sciatic nerve; group average) was 3.3 h, the “loss of Sensor block, average” value (sciatic nerve; group average) was 4.3 h and the “Loss Motor block” value (sciatic nerve; individual rat) was 4 h (4×) and 3 h (2×). The “loss of Sensor block” value (sciatic nerve; individual rat) was 6 h (2×) and 3 h (2×) and 4 h (2×), the “Motor Block, test time 0 h” value (sciatic nerve; [4]) was 1 (5×) and 0.5 and the “Sensor Block, test time 0 h” value (sciatic nerve; [4]) was 1. For the same molecule, the “Motor Block, test time 1 h” value (sciatic nerve; [5]) was 1 (5×) and 0.5, the “Sensor Block, test time 1 h” value (sciatic nerve; [5]) was 1 and the “Motor Block, test time 2 h” value (sciatic nerve; [6]) was 1 (4×) and 0.5 (2×). The “Sensor Block, test time 2 h” value (sciatic nerve; [6]) was 1, the “Motor Block, test time 3 h” value (sciatic nerve; [7]) was 0.5 and 0 (3×) and 1 (2×) and the “Sensor Block, test time 3 h” value (sciatic nerve; [7]) was 1 (4×) and 0 (2×). For the same molecule, the “Motor Block, test time 4 h” value (sciatic nerve; [8]) was 0, the “Sensor Block, test time 4 h” value (sciatic nerve; [8]) was 1 and 0 (4×) and 0.5 and the “Motor Block, test time 5 h” value (sciatic nerve; [9]) was 0. For the same molecule, the “Sensor Block, test time 5 h” value (sciatic nerve; [9]) was 1 and 0 (2×) and 0.5, the “Motor Block, test time 6 h” value (sciatic nerve; [10]) was 0 and the “Sensor Block, test time 6 h” value (sciatic nerve; [10]) was 0. For the same molecule, the “Motor Block, test time 7 h” value (sciatic nerve; [11]) was 0, the “Sensor Block, test time 7 h” value (sciatic nerve; [11]) was 0 and the “duration of the anesthetic effect” value (female rats [1]; 0.25 mg/kg bodyweight s.c.) was 2 h. The “duration of the anesthetic effect” value (female rats [1]; 1 mg/kg bodyweight s.c.) was 5 h, the “Impurity H (2,6-dimethylaniline), UPLC-UV-MS” value ([2]; Full scan m/z 50-800) was “Not detected” and the “Impurity H (2,6-dimethylaniline), UPLC-UV” value ([2]; UV 240 nm) was “Not detected”. The “2,6-dimethylaniline (Impurity H) level” value ([2]; not detected, UPLC-UV (240 nm) and UPLC-UV-MS) was < 0.05 area-%, the “Average value of first response” value (female rats [3]; group of 3 rats) was 1.8 h and the “Prick test response, 0.5 h” value (female rats [3]; individual rat, 0 = no response (anesthesia), 1 = response, 0.5 mg/ml, 0.5 h, 0.25 mg/kg) was 0 (2×) and 1. The “Prick test response, 1 h” value (female rats [3]; individual rat, 0 = no response (anesthesia), 1 = response, 1 h, 0.25 mg/kg) was 0 (2×) and 1, the “Prick test response, 2 h” value (female rats [3]; individual rat, 0 = no response (anesthesia), 1 = response, 2 h, 0.25 mg/kg) was 1 (2×) and 0 and the “Prick test response, 3 h” value (female rats [3]; individual rat, 0 = no response (anesthesia), 1 = response, 3 h) was 1. The “Prick test response, 4 h” value (female rats [3]; individual rat, 0 = no response (anesthesia), 1 = response, 4 h, 0.25 mg/kg) was 1 (2×) and 0 and the “Prick test response, 5 h” value (female rats [3]; individual rat, 0 = no response (anesthesia), 1 = response, 5 h) was 1.
